This note sets out measurements from patent publication US12479821B2 (MBD CO., LTD., priority 2019, dated 2025).

The assay addresses T1, CYP4A (Homo sapiens, UniProt Q02928).
T1 construct: host or cells: bactosome, i.e. bacterial membrane preparation (own knowledge of the term)
T1 sequence (Q02928 5-519): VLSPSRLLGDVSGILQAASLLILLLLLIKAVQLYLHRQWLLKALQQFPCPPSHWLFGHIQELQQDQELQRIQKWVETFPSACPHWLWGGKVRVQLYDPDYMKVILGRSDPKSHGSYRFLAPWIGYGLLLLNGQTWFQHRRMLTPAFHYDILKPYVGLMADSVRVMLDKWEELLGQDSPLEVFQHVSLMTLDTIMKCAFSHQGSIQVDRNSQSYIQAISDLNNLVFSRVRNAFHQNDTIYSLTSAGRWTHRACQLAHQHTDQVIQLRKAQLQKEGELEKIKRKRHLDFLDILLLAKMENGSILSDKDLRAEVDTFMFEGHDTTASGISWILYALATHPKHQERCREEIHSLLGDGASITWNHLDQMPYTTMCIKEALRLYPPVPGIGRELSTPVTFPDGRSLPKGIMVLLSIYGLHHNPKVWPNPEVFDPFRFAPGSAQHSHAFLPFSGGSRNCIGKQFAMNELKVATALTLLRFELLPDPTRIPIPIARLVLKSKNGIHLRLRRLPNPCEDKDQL
Briefly: CYP4A enzyme assay (Luciferin-ME luminescence, CYP4A bactosome). It is filed as biochemical. Particulars: compound concentration 5 μM. On the procedure:
A commercially available reagent was used for the reagent used in the experiment, and it was manufactured and used if necessary. The device used for activity measurement was EnVision of PerkinElmer or SpectraMax of MOLECULAR DEVICES.
First, CYP4A bactosome and synthetic compound (5 μM) were mixed in assay buffer (100 mM KPO4, 0.1% BSA, 1 mM DTT) in a 384-well plate (white opaque ploystyrene nontreated flat-bottom well), and then reacted at room temperature for 15 minutes. After adding 5 mM Luciferin-ME and NADPH Regeneration system (10× sol.A, 20× sol.B in assay buffer, Cat. Number: V865B, Promega), leave it at room temperature for 30 minutes to allow the CYP4A reaction to occur sufficiently, by adding the Luciferin Detection reagent, the CYP4A reaction was finished, luminescence reaction was induced, and the reaction was carried out at room temperature for 15 minutes. The degree of inhibition of CYP4A activity was measured by comparing the luminescence values from each well with a microplate reader.

[1] abbreviates: 75% or more, read-out: % Inhibition 75% or more.
[2] abbreviates: '50%-75%', read-out: % Inhibition 50%-75%.
Setting [3] is: 25%-50%, read-out: % Inhibition 25%-50%.

Molecules are shown by their SMILES. Like-named read-outs stand apart in the source and are kept apart here.

For the compound `COc1cccc(S(=O)(=O)N2CCCC(C(=O)N3CCN(c4ccnc5cc(F)ccc45)CC3)C2)c1` (stereo not drawn) [Formula 58, (4-(7-fluoroquinolin-4-yl)piperazin-1-yl) (1-(3-methoxyphenylsulfonyl)piperidin-3-yl) methanone], the inhibition (in general, the percentage by which the read-out fell short of the control) at 5 µM under setting [1] was at least 75%.

Take `CC(=O)Nc1cccc(S(=O)(=O)N2CCC[C@@H](C(=O)N3CCN(c4ccnc5cc(F)ccc45)CC3)C2)c1` [Formula 59, (R)—N-(3-(3-(1-(7-fluoroquinolin-4-yl)piperazine-4-carbonyl)piperidin-1-ylsulfonyl)phenyl) acetamide]: the inhibition at 5 µM under setting [1] is at least 75%.

Take `O=C([C@@H]1CCCN(S(=O)(=O)c2cccc([N+](=O)[O-])c2)C1)N1CCN(c2ccnc3cc(F)ccc23)CC1` [Formula 60, (R)-(4-(7-fluoroquinolin-4-yl)piperazin-1-yl) (1-(3-nitrophenylsulfonyl)piperidin-3-yl) methanone]: the inhibition at 5 µM under setting [1] was at least 75%.

Consider `CN(C)c1cccc(S(=O)(=O)N2CCC[C@@H](C(=O)N3CCN(c4ccnc5cc(F)ccc45)CC3)C2)c1` [Formula 61, (R)-(1-(3-(dimethylamino)phenylsulfonyl)piperidin-3-yl) (4-(7-fluoroquinolin-4-yl)piperazin-1-yl) methanone], for which the inhibition at 5 µM under setting [1] is at least 75%.

Consider `O=C(C1CCCN(S(=O)(=O)c2cccc(Br)c2)C1)N1CCN(c2ccnc3cc(F)ccc23)CC1` (stereo not drawn) [Formula 62, (1-(3-bromophenylsulfonyl)piperidin-3-yl) (4-(7-fluoroquinolin-4-yl)piperazin-1-yl) methanone], for which the inhibition at 5 µM under setting [1] was at least 75%.

With `CC(=O)Nc1ccc(S(=O)(=O)N2CCCC(C(=O)N3CCN(c4cc(C(F)(F)F)nc5ccccc45)CC3)C2)cc1` (stereo not drawn) [Formula 63, N-(4-(3-(1-(2-(trifluoromethyl)quinolin-4-yl)piperazine-4-carbonyl)piperidin-1-ylsulfonyl)phenyl) acetamide], the inhibition at 5 µM under setting [2] was 50 to 75%.

With `O=C(C1CCCN(S(=O)(=O)c2ccccc2)C1)N1CCN(c2cc(C(F)(F)F)nc3ccccc23)CC1` (stereo not drawn) [Formula 64, (1-(phenylsulfonyl)piperidin-3-yl) (4-(2-(trifluoromethyl)quinolin-4-yl)piperazin-1-yl)methanone], the inhibition at 5 µM (mark in column '25% or less', read-out: % Inhibition 25% or less) was at most 25%.

With `Cc1ccc(S(=O)(=O)N2CCCC(C(=O)N3CCN(c4cc(C(F)(F)F)nc5ccccc45)CC3)C2)cc1` (stereo not drawn) [Formula 65, (1-tosylpiperidin-3-yl) (4-(2-(trifluoromethyl)quinolin-4-yl)piperazin-1-yl) methanone], the inhibition at 5 µM under setting [3] lay in the range of 25 to 50%.

Regarding `O=C(C1CCCN(S(=O)(=O)c2ccc(F)cc2)C1)N1CCN(c2cc(C(F)(F)F)nc3ccccc23)CC1` (stereo not drawn) [Formula 66, (1-(4-fluorophenylsulfonyl)piperidin-3-yl) (4-(2-(trifluoromethyl)quinolin-4-yl)piperazin-1-yl) methanone], under setting [3], the inhibition at 5 µM lay within 25 to 50%.

With `CN(C)c1ccc(S(=O)(=O)N2CCCC(C(=O)N3CCN(c4cc(C(F)(F)F)nc5ccccc45)CC3)C2)cc1` (stereo not drawn) [Formula 67, (1-(4-(dimethylamino)phenylsulfonyl)piperidin-3-yl) (4-(2-(trifluoromethyl)quinolin-4-yl)piperazin-1-yl) methanone], the inhibition at 5 µM under setting [2] was 50 to 75%.

In the case of `O=C(C1CCCN(S(=O)(=O)c2ccc(O)cc2)C1)N1CCN(c2cc(C(F)(F)F)nc3ccccc23)CC1` (stereo not drawn) [Formula 68, (1-(4-hydroxyphenylsulfonyl)piperidin-3-yl) (4-(2-(trifluoromethyl)quinolin-4-yl)piperazin-1-yl) methanone], the inhibition at 5 µM under setting [3] lay within 25 to 50%.

As for `O=C([C@@H]1CCCN(S(=O)(=O)c2ccc(O)cc2)C1)N1CCN(c2cc(C(F)(F)F)nc3ccccc23)CC1` [Formula 69, (R)-(1-(4-hydroxyphenylsulfonyl)piperidin-3-yl) (4-(2-(trifluoromethyl)quinolin-4-yl)piperazin-1-yl) methanone], the inhibition at 5 µM under setting [2] was 50 to 75%.

On to `O=C([C@H]1CCCN(S(=O)(=O)c2ccc(O)cc2)C1)N1CCN(c2cc(C(F)(F)F)nc3ccccc23)CC1` [Formula 70, (S)-(1-(4-hydroxyphenylsulfonyl)piperidin-3-yl) (4-(2-(trifluoromethyl)quinolin-4-yl)piperazin-1-yl) methanone], for which the inhibition at 5 µM under setting [3] is 25 to 50%.

With `O=C(C1CCCN(S(=O)(=O)c2ccc(C(F)(F)F)cc2)C1)N1CCN(c2cc(C(F)(F)F)nc3ccccc23)CC1` (stereo not drawn) [Formula 71, (1-(4-(trifluoromethyl)phenylsulfonyl)piperidin-3-yl) (4-(2-(trifluoromethyl)quinolin-4-yl)piperazin-1-yl) methanone], the inhibition at 5 µM under setting [3] was in the range of 25 to 50%.

As for `O=C(C1CCCN(S(=O)(=O)c2cccc(F)c2)C1)N1CCN(c2cc(C(F)(F)F)nc3ccccc23)CC1` (stereo not drawn) [Formula 72, (1-(3-fluorophenylsulfonyl)piperidin-3-yl) (4-(2-(trifluoromethyl)quinolin-4-yl)piperazin-1-yl) methanone], the inhibition at 5 µM under setting [3] lay within 25 to 50%.

For the compound `O=C(C1CCCN(S(=O)(=O)c2c(F)c(F)c(F)c(F)c2F)C1)N1CCN(c2cc(C(F)(F)F)nc3ccccc23)CC1` (stereo not drawn) [Formula 73, (1-(perfluorophenylsulfonyl)piperidin-3-yl) (4-(2-(trifluoromethyl)quinolin-4-yl)piperazin-1-yl) methanon], the inhibition at 5 µM under setting [3] was in the range of 25 to 50%.

Take `O=C(C1CCCN(S(=O)(=O)c2ccccc2)C1)N1CCN(c2ccnc3ccccc23)CC1` (stereo not drawn) [Formula 74, (1-(phenylsulfonyl)piperidin-3-yl) (4-(quinolin-4-yl)piperazin-1-yl) methanone]: the inhibition at 5 µM under setting [2] lay in the range of 50 to 75%.

Regarding `O=C(C1CCCN(S(=O)(=O)c2ccc(F)cc2)C1)N1CCN(c2ccnc3ccccc23)CC1` (stereo not drawn) [Formula 75, (1-(4-fluorophenylsulfonyl)piperidin-3-yl) (4-(quinolin-4-yl)piperazin-1-yl) methanone], the inhibition at 5 µM under setting [1] was at least 75%.

As for `O=C(C1CCCN(S(=O)(=O)c2ccc(O)cc2)C1)N1CCN(c2ccnc3ccccc23)CC1` (stereo not drawn) [Formula 76, (1-((4-hydroxyphenyl)sulfonyl)piperidin-3-yl) (4-(quinolin-4-yl)piperazin-1-yl) methanone], the inhibition at 5 µM under setting [1] is at least 75%.

Regarding `CN(C)c1ccc(S(=O)(=O)N2CCCC(C(=O)N3CCN(c4ccnc5ccccc45)CC3)C2)cc1` (stereo not drawn) [Formula 77, (1-(4-(dimethylamino)phenylsulfonyl)piperidin-3-yl) (4-(quinolin-4-yl)piperazin-1-yl) methanone], the inhibition at 5 µM under setting [1] was at least 75%.

For `CC(=O)Nc1ccc(S(=O)(=O)N2CCCC(C(=O)N3CCN(c4ccnc5ccccc45)CC3)C2)cc1` (stereo not drawn) [Formula 78, N-(4-((3-(4-(quinolin-4-yl)piperazine-1-carbonyl)piperidin-1-yl)sulfonyl)phenyl) acetamide], the inhibition at 5 µM under setting [1] was at least 75%.

Regarding `CN(C)c1ccc(S(=O)(=O)N2CCC[C@@H](C(=O)N3CCN(c4ccnc5ccccc45)CC3)C2)cc1` [Formula 79, (R)-(1-(4-(dimethylamino)phenylsulfonyl)piperidin-3-yl) (4-(quinolin-4-yl)piperazin-1-yl)methanone], the inhibition at 5 µM under setting [1] was at least 75%.

Take `CN(C)c1ccc(S(=O)(=O)N2CCC[C@H](C(=O)N3CCN(c4ccnc5ccccc45)CC3)C2)cc1` [Formula 80, (S)-(1-(4-(dimethylamino)phenylsulfonyl)piperidin-3-yl) (4-(quinolin-4-yl)piperazin-1-yl)methanone]: the inhibition at 5 µM under setting [1] is at least 75%.

With `O=C(C1CCCN(S(=O)(=O)c2ccc([N+](=O)[O-])cc2)C1)N1CCN(c2ccnc3ccccc23)CC1` (stereo not drawn) [Formula 81, (1-(4-nitrophenylsulfonyl)piperidin-3-yl) (4-(quinolin-4-yl)piperazin-1-yl) methanone], the inhibition at 5 µM under setting [1] was at least 75%.

For `O=C(C1CCCN(S(=O)(=O)c2cccc([N+](=O)[O-])c2)C1)N1CCN(c2ccnc3ccccc23)CC1` (stereo not drawn) [Formula 82, (1-(3-nitrophenylsulfonyl)piperidin-3-yl) (4-(quinolin-4-yl)piperazin-1-yl) methanone], the inhibition at 5 µM under setting [1] is at least 75%.

With `CCN(CC)c1ccc(S(=O)(=O)N2CCCC(C(=O)N3CCN(c4ccnc5ccccc45)CC3)C2)cc1` (stereo not drawn) [Formula 83, (1-(4-(diethylamino)phenylsulfonyl)piperidin-3-yl) (4-(quinolin-4-yl)piperazin-1-yl)methanone], the inhibition at 5 µM under setting [1] is at least 75%.

For `O=C(C1CCCN(S(=O)(=O)c2ccc(-c3ccccc3)cc2)C1)N1CCN(c2ccnc3ccccc23)CC1` (stereo not drawn) [Formula 84, (4-(quinolin-4-yl)piperazin-1-yl) (1-(4-phenylbenzenesulfonyl)piperidin-3-yl) methanone], the inhibition at 5 µM under setting [1] was at least 75%.
